In ChEMBL document CHEMBL1201862, “PubChem BioAssay data set” (2004):
Calls of active or inactive are those of the source. Cut-off read from the data, not from the text of the source, for most assays here: actives have a measured EC50 and inactives only a lower limit.

Assays:
[1] = target: T1, Heat shock factor protein 1 (Mus musculus, UniProt P38532); assay: inhibition of MG132-induced HSE-luciferase signal, confirmation, cell-based, NIH3T3, luminescence, dose retest (AID 2382); format: functional;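 note: NIH3T3 fibroblasts with HSF1-driven luciferase reporter stressed by proteasome inhibitor MG132; luminescence from HSF1-driven luciferase expression after 8 hours of MG132 stress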
T1 sequence (P38532 whole entry): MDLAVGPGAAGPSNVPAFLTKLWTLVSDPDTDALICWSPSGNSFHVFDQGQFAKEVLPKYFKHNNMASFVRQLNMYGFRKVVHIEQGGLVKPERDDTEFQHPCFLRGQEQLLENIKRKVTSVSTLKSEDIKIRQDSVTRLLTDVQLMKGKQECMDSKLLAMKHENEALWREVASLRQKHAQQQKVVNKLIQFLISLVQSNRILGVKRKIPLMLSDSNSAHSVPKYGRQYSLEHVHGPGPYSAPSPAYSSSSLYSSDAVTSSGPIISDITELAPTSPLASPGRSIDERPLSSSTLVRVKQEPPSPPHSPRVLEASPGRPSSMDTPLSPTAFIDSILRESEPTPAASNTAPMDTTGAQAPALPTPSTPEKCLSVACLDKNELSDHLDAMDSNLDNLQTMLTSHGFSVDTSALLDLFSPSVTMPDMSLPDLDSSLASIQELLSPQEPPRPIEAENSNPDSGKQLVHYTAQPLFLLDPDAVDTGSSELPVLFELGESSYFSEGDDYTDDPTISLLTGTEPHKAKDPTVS

[2] = Luminescence Cell-Based Dose Confirmation HTS to Identify Activators of 5'UTR Stem-Loop Driven Alpha-Synuclein mRNA Translation in H4 Neuroglioblastoma Cells. [Related pubchem assays: 1829 (Project Summary), 1814 (Primary HTS)]; format: functional
H4 = assay: Luminescence Cell-Based Dose Response HTS to Identify Activators of 5'UTR Stem-Loop Driven Prion Protein mRNA Translation in H4 Neuroglioblastoma Cells. [Related pubchem assays: 1829 (Project Summary), 1814 (Primary HTS)]; format: functional; conditions: Homo sapiens
[3] = Luminescence Cell-Based Dose Response HTS to Identify Activators of Luciferase Translation or Activity in H4 […] Cells. [Related pubchem assays: 1829 (Project Summary), 1814 (Primary HTS)]; format: functional
Streptococcus = assay: Group A Streptococcus viability loss, dose response, counter-screen for streptokinase expression inhibitor project, luminescence, BacTiterGlo (AID 1915); format: functional, organism-based;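 note: potency for reduction of bacterial viability or growth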
[4] = system: Streptococcus sp. 'group A'; assay: growth inhibition of control SK(-) GAS strain, dose response, counter-screen for streptokinase expression inhibitor project, luminescence, kanamycin, BacTiterGlo, confirmation (AID 1900); format: functional, organism-based
Streptokinase A = target: T2, Streptokinase A (Streptococcus pyogenes serotype M1, UniProt P10520); assay: S. pyogenes streptokinase expression inhibitors, potency, dose response, plasminogen activation absorbance, OD405 (AID 1914); format: functional, Streptococcus pyogenes M1 GAS;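 note: secreted streptokinase activity via plasminogen activation per viability signal from cell pellet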
T2 sequence (P10520 whole entry): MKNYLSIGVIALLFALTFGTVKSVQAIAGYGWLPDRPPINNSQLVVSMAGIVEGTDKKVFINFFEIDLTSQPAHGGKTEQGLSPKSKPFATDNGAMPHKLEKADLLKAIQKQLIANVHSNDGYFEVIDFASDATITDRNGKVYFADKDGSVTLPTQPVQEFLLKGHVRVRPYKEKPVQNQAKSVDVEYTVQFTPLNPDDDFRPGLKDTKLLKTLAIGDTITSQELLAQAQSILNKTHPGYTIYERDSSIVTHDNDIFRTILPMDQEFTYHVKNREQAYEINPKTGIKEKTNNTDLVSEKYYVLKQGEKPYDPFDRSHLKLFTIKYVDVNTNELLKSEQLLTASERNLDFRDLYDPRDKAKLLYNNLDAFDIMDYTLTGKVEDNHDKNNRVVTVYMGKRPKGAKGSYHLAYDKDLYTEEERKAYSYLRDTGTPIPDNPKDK

[5] = target: Luciferin 4-monooxygenase (Photinus pyralis, UniProt P08659); assay: firefly luciferase enzyme inhibitors, dose response, biochemical, luminescence (AID 1891)
Chain of Luciferin 4-monooxygenase (P08659 whole entry): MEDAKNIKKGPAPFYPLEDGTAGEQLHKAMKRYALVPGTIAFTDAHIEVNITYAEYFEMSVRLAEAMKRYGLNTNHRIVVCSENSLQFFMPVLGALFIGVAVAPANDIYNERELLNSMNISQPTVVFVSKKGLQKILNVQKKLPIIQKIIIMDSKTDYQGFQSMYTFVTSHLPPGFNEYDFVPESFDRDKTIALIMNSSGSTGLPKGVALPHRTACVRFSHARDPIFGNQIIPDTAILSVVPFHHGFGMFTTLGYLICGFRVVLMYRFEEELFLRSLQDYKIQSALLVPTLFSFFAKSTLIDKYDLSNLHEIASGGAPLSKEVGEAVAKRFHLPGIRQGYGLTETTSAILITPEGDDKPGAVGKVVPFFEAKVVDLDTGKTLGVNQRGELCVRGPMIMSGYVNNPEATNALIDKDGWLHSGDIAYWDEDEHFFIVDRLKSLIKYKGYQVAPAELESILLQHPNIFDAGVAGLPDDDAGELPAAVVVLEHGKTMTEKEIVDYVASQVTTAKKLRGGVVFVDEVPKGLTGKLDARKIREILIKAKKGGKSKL

[6] = Luminescence Cell-Based Dose Confirmation HTS to Identify Inhibitors of Platelet Dense Granule Release. [Related pubchem assays: 1663 (Primary HTS), 1678 (Summary of Project)]; format: functional
[7] = target: T3, Rac GTPase-activating protein 1 (Homo sapiens, UniProt Q9H0H5); assay: MgcRacGAP GTPase-activating activity inhibitors, confirmation, biochemical, ADP Hunter fluorescence, primary and confirmatory (AID 624330); format: functional
T3 sequence (Q9H0H5 whole entry): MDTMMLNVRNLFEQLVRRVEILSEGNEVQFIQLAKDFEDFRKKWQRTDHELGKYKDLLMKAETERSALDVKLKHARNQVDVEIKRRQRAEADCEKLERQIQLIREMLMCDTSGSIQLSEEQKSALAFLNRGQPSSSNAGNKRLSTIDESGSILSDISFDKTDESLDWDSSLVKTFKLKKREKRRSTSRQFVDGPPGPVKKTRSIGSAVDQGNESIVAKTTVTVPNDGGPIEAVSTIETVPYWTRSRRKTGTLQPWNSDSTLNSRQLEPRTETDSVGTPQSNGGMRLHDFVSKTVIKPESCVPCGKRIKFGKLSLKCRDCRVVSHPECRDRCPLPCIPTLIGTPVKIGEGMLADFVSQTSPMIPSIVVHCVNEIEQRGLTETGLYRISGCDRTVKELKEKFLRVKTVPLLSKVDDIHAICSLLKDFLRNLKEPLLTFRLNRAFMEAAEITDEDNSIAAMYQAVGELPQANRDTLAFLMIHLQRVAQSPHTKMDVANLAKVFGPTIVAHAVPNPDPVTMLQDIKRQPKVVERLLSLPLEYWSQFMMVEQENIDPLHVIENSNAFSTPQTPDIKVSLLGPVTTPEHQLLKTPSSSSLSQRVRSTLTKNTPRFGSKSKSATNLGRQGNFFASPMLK

[8] = Luminescence Cell-Based Dose Retest to Confirm Inhibitors of Cancer Stem Cells. [Related pubchem assays (depositor defined):AID2717, AID2721]; format: functional; conditions: Homo sapiens
Paired box protein Pax-8 = Paired box protein Pax-8 (Homo sapiens, UniProt Q06710); assay: inhibitors of PAX8-driven TPO luciferase reporter, dose response, RMG-I cells, cherry-pick (AID 687027); format: functional, cell-based;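 note: luciferase reporter driven by Pax8 target thyroperoxidase promoter measured by SteadyGlo luminescence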
Chain of Paired box protein Pax-8 (Q06710 whole entry): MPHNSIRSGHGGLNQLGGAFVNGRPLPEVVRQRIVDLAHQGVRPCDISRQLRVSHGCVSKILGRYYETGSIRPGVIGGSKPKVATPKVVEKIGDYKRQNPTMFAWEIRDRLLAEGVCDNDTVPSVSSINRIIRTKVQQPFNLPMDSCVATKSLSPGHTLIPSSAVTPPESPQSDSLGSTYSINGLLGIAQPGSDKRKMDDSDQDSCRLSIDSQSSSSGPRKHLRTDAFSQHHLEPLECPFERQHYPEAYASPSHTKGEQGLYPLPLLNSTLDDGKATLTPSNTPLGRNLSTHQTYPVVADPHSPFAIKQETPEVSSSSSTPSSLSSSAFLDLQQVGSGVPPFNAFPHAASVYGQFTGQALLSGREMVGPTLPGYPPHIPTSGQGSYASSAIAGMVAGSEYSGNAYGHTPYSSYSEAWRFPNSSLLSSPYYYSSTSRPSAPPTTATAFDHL

## Cn1c(=O)c2c(SCC(=O)N3CCCc4ccccc43)nc(C3CC3)nc2n(C)c1=O
[1]
  EC50: > 195 µM (not active)

## O=C(c1cc2ccccc2oc1=O)N(c1ccc(Cl)cc1)C1C=CS(=O)(=O)C1 (configuration not stated)
[2]
  EC50: 13.6 µM (active)
H4
  EC50: > 120 µM (not active)
[3]
  EC50: 36.3 µM (active)

## COc1ccc(NC(=O)C2CC2)cc1-n1cnnn1
[1]
  EC50: > 195 µM (not active)

## O=C(Nc1ccccc1)C1=C[C@@H](c2ccccc2)C[C@@H](OCc2ccc(CO)cc2)O1
[2]
  EC50: 7.69 µM (active)
H4
  EC50: 14.2 µM (active)
[3]
  EC50: > 120 µM (not active)

## Oc1ccc(-c2c(C3=CCCCC3)sc3ccccc23)cc1
Streptococcus
  EC50: 7.29 µM (active)
[4]
  EC50: 2.48 µM (active)
Streptokinase A
  EC50: 55.7 µM (inconclusive)

## CN(C(=O)CSc1nncn1C)C1CCCN(Cc2ccccc2F)C1 (configuration not stated)
[5]
  EC50: > 112 µM (not active)
[6]
  EC50: > 112 µM (not active)

## Cc1cc(C)nc(NC2=NCCS2)n1
[5]
  EC50: > 112 µM (not active)
[6]
  EC50: > 112 µM (not active)

## O=C(Nc1cccnc1)C1CCN(S(=O)(=O)c2cccs2)CC1
[2]
  EC50: > 120 µM (not active)
H4
  EC50: > 120 µM (not active)
[3]
  EC50: > 120 µM (not active)

## CCN(CC)CCCNCC(=O)Nc1ccc2c(c1)CCC2
[7]
  IC50: 117 µM (active)

## COc1ccc(N(C(=O)c2ccc(F)cc2)C2=CC3CCC(C2)N3C)cc1 (configuration not stated)
[5]
  EC50: > 112 µM (not active)
[6]
  EC50: > 112 µM (not active)

## CCOC(=O)c1cnn(-c2nc3c(C)cccc3s2)c1C(F)(F)F
Streptococcus
  EC50: 16.6 µM (active)
[4]
  EC50: 9.35 µM (active)
Streptokinase A
  EC50: 22.3 µM (active)

## C[n+]1ccc(C=NNc2nc(Cl)c(C#N)c(Cl)c2Cl)cc1
Streptococcus
  EC50: > 150 µM (not active)
[4]
  EC50: 33 µM (active)
Streptokinase A
  EC50: > 150 µM (not active)

## COc1ccc(N2CCN(C(=O)Cc3ccc(-n4c(=O)[nH]c5ccccc5c4=O)cc3)CC2)cc1
[1]
  EC50: > 195 µM (not active)

## CCOC(=O)c1[nH]c2ccc(OC)cc2c1N=C(S)N1CCN(C(=O)OCC)CC1
[5]
  EC50: > 112 µM (not active)
[6]
  EC50: > 112 µM (not active)

## CCCCCOc1ccc(CSc2n[nH]c(C)n2)cc1
[2]
  EC50: 63 µM (active)
H4
  EC50: 20.8 µM (active)
[3]
  EC50: 14.5 µM (active)

## Nc1c(Cl)ncnc1NCCc1ccc(O)cc1
[7]
  IC50: 99.1 µM (active)

## CSc1nc(N)n2nc(-c3ccccc3)cc2n1
[5]
  EC50: 3.8 µM (active)
[6]
  EC50: 5.68 µM (active)

## O=C(NCC(O)c1ccccc1)c1ccc(Cl)c(S(=O)(=O)N2CCCC2)c1 (configuration not stated)
[2]
  EC50: 37.8 µM (active)
[3]
  EC50: 14.9 µM (active)

## CCOC(=O)c1sc(NC(=O)CC(C)c2ccccc2)nc1C (configuration not stated)
[5]
  EC50: > 112 µM (not active)
[6]
  EC50: > 112 µM (not active)

## S=C(c1ccc2c(c1)OCO2)N1CCCCC1
[5]
  EC50: > 112 µM (not active)
[6]
  EC50: > 112 µM (not active)

## O=C(Nc1ccc2c(c1)CCC2)c1cc(S(=O)(=O)Nc2ccc(F)cc2)c(Cl)cc1Cl
Streptococcus
  EC50: 15.2 µM (active)
[4]
  EC50: 3.5 µM (active)
Streptokinase A
  EC50: 3.26 µM (active)
[8]
  AC50: 4.35 µM (active)

## Cc1cc(C(=O)CSc2nc3ccccc3o2)c(C)n1C1CC1
[2]
  EC50: 35.7 µM (active)
[3]
  EC50: 0.905 µM (active)

## COc1ccc(S(=O)(=O)NCC2CCCN(C(=O)C3CCCC3)C2)cc1 (configuration not stated)
[1]
  EC50: > 195 µM (not active)

## O=C(CC1CCCCC1)NCc1ccccc1Cl
[2]
  EC50: > 120 µM (not active)
H4
  EC50: > 120 µM (not active)
[3]
  EC50: 14.1 µM (active)

## Cc1ccc(C)c(CSC2=NCCN2S(=O)(=O)c2ccccc2)c1
Streptococcus
  EC50: > 150 µM (not active)
[4]
  EC50: 21.7 µM (active)
Streptokinase A
  EC50: 17.3 µM (active)

## O=C(Nc1ccc2c(c1)OCO2)C1CC(c2c(F)cccc2Cl)=NO1 (configuration not stated)
[2]
  EC50: 3.83 µM (active)
H4
  EC50: 13.6 µM (active)
[3]
  EC50: 25.6 µM (active)

## CCOC(=O)C1=C(COC(=O)/C=C/c2ccc(O)c(OC)c2)NC(=O)NC1C (configuration not stated)
[7]
  IC50: 59.4 µM (active)

## Sc1nnc(-c2cnccn2)n1-c1ccccc1
[1]
  EC50: > 195 µM (not active)

## FC(F)(F)c1cc(N2CCN(Cc3ccccc3)CC2)c2ccccc2n1
Streptococcus
  EC50: > 150 µM (not active)
[4]
  EC50: > 150 µM (not active)
Streptokinase A
  EC50: > 150 µM (not active)

## CCN(CC)c1ccc(-n2cc3c(=O)n(C)c(=O)n(C)c3c2)cc1
Streptococcus
  EC50: 39.3 µM (active)
[4]
  EC50: 4.91 µM (active)
Streptokinase A
  EC50: > 150 µM (not active)

## O=C(NCc1ccccn1)C(=O)Nc1ccccc1
[2]
  EC50: 46.3 µM (active)
H4
  EC50: 13 µM (active)
[3]
  EC50: 27.2 µM (active)

## CNC(=O)c1cc(S(=O)(=O)N(C)C)ccc1Cl
[5]
  EC50: > 112 µM (not active)
[6]
  EC50: > 112 µM (not active)

## COc1ccc(OC(C)C(=O)N2CCC(C)CC2)cc1 (configuration not stated)
[1]
  EC50: > 195 µM (not active)

## COc1ccc(/C=N/Nc2nccnc2Cl)cc1
[5]
  EC50: 3.76 µM (active)
[6]
  EC50: 1.15 µM (active)

## Nc1ccc2nc(-c3ccccn3)[nH]c2c1
[1]
  EC50: 23.2 µM (active)

## C[C@@H]1CCCCO[C@H](CN(C)Cc2ccc(C(F)(F)F)cc2)[C@H](C)CN([C@@H](C)CO)C(=O)c2cc(NS(=O)(=O)c3cccs3)ccc2O1
Paired box protein Pax-8
  AC50: 9.41 µM (active)

## O=C1c2ccccc2S(=O)(=O)c2cc(N3CCc4ccccc4C3)ccc21
[2]
  EC50: 14 µM (active)
H4
  EC50: 15.6 µM (active)
[3]
  EC50: 16.3 µM (active)

## C/C(=N\N=C(/N)SC1CC(=O)N(c2ccc(Cl)c(Cl)c2)C1=O)c1cccs1 (configuration not stated)
Streptococcus
  EC50: 8.08 µM (active)
[4]
  EC50: 2.88 µM (active)
Streptokinase A
  EC50: 7.44 µM (inconclusive)
[8]
  AC50: 3.86 µM (active)

## Nc1c(S(=O)(=O)c2cccs2)c2nc3ccccc3nc2n1/N=C/c1cccc(O)c1
Streptococcus
  EC50: 7.29 µM (active)
[4]
  EC50: 3.26 µM (active)
Streptokinase A
  EC50: > 150 µM (not active)
[8]
  AC50: 3.99 µM (active)

## O=C(O)c1ccc(/C=N\Nc2ccccn2)cc1
[5]
  EC50: 3.56 µM (active)
[6]
  EC50: 2.54 µM (active)

## O=C(O)CC1Sc2ccccc2NC1=O (configuration not stated)
[5]
  EC50: > 112 µM (not active)
[6]
  EC50: > 112 µM (not active)

## COc1ccc(N2CCN(C(CNC(=O)CC(C)(C)C)c3ccc4c(c3)OCO4)CC2)cc1 (configuration not stated)
[7]
  IC50: 166 µM (active)
